The supplement of paper PMC11208160

Test: recombinant UMI read abundance after kanamycin selection (control-corrected) (log10(CPM+1)); higher = more efficient recombination; extreme values may be limits of the assay; sequences stand for … in AGTGCAGAGAAAATCGGCCAGTTTTCTCTGCCTGCAGTCCGCATGCCGTGGGACCCCTTGGGTTCTAACCTGTTGCCTAGATTTATGCAGCGGACTGCCTTTCTCCCAAAGTGATAAACCGG…AGGTTGGTTTCACT; site = the 11-nt donor
In short: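 Each donor and donor-binding-loop pair was tracked by a 12-nt UMI on a plasmid carrying a promoterless kanamycin gene. With a second plasmid supplying a fixed target and T7-inducible IS621 bridge recombinase, the pool was plated in Escherichia coli on IPTG (0.07 mM) plus kanamycin or unselected. Sequencing of recombinant UMIs across the donor–target junction gave counts expressed as log10(CPM+1) after replicate averaging and control-derived scaling.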

Row | Sequence | recombinant UMI read abundance (log10)
1 | GAAGAGACATGGACCGGTTTTCCCGGTAATCCGTATTTGCT (site GAAGAGACTAG) | 2.79
2 | GAAGATGCATGGACCGGTTTTCCCGGTAATCCGTATTTGTT (site GAAGATACTAA) | 1.88
3 | GAAGATGCATGGACCGGTTTTCCCGGTAATCCGTATTTGTT (site GAAGATCCTAA) | 0.286
4 | GAAGATGCATGGACCGGTTTTCCCGGTAATCCGTATTTGTT (site GAAGATGCTAA) | 2.81
5 | GAAGATGCATGGACCGGTTTTCCCGGTAATCCGTATTTGTT (site GAAGATTCTAA) | 0
6 | GAAGATTCATGGACCGGTTTTCCCGGTAATCCGTATTTGGT (site GAAGATTCTAA) | 0.995
7 | GAAGATTCATGGACCGGTTTTCCCGGTAATCCGTATTTGGT (site GAAGATTCTAC) | 3.05
8 | GAAGATTCATGGACCGGTTTTCCCGGTAATCCGTATTTGGT (site GAAGATTCTAG) | 0
9 | GAAGATTCATGGACCGGTTTTCCCGGTAATCCGTATTTGGT (site GAAGATTCTAT) | 1.82
10 | GAAGATTCATGGACCGGTTTTCCCGGTAATCCGTATTTGTA (site GAAGATTCTAA) | 0.349
11 | GAAGATTCATGGACCGGTTTTCCCGGTAATCCGTATTTGTA (site GAAGATTCTCA) | 1.55
12 | GAAGATTCATGGACCGGTTTTCCCGGTAATCCGTATTTGTA (site GAAGATTCTGA) | 0
13 | GAAGATTCATGGACCGGTTTTCCCGGTAATCCGTATTTGTA (site GAAGATTCTTA) | 2.5
14 | GAAGCAGCATGGACCGGTTTTCCCGGTAATCCGTATTTGCT (site AAAGCAGCTAG) | 1.32
15 | GAAGCAGCATGGACCGGTTTTCCCGGTAATCCGTATTTGCT (site CAAGCAGCTAG) | 1.19
16 | GAAGCAGCATGGACCGGTTTTCCCGGTAATCCGTATTTGCT (site GAAGCAGCTAG) | 2.25
17 | GAAGCAGCATGGACCGGTTTTCCCGGTAATCCGTATTTGCT (site TAAGCAGCTAG) | 2.01
18 | GAAGCGCCATGGACCGGTTTTCCCGGTAATCCGTATTTGTG (site AAAGCGCCTCA) | 0.00334
19 | GAAGCGCCATGGACCGGTTTTCCCGGTAATCCGTATTTGTG (site CAAGCGCCTCA) | 0.00406
20 | GAAGCGCCATGGACCGGTTTTCCCGGTAATCCGTATTTGTG (site GAAGCGCCTCA) | 0.139
21 | GAAGCGCCATGGACCGGTTTTCCCGGTAATCCGTATTTGTG (site TAAGCGCCTCA) | 0.00772
22 | GAAGGGCCATGGACCGGTTTTCCCGGTAATCCGTATTTGTG (site GAAGGGCCTCA) | 0.0149
23 | GAAGGTACATGGACCGGTTTTCCCGGTAATCCGTATTTGAC (site GAAGGTACTGT) | 2.28
24 | GAAGGTACATGGACCGGTTTTCCCGGTAATCCGTATTTGAC (site GCAGGTACTGT) | 0
25 | GAAGGTACATGGACCGGTTTTCCCGGTAATCCGTATTTGAC (site GGAGGTACTGT) | 0

Row | Sequence | recombinant UMI read abundance (log10)
26 | GAAGGTACATGGACCGGTTTTCCCGGTAATCCGTATTTGAC (site GTAGGTACTGT) | 2.16
27 | GAAGTCGCATGGACCGGTTTTCCCGGTAATCCGTATTTGGT (site GAAGTCGCTAC) | 1.34
28 | GAAGTGGCATGGACCGGTTTTCCCGGTAATCCGTATTTGGT (site GAAGTGGCTAC) | 0.489
29 | GAAGTGGCATGGACCGGTTTTCCCGGTAATCCGTATTTGGT (site GCAGTGGCTAC) | 0.177
30 | GAAGTGGCATGGACCGGTTTTCCCGGTAATCCGTATTTGGT (site GGAGTGGCTAC) | 0.113
31 | GAAGTGGCATGGACCGGTTTTCCCGGTAATCCGTATTTGGT (site GTAGTGGCTAC) | 0.882
32 | GAAGTGTCATGGACCGGTTTTCCCGGTAATCCGTATTTGAA (site GAAGTGTCTTT) | 3.13
33 | GAATAGCCATGGACCGGTTTTCCCGGTAATCCGTATTTGCA (site GAATAGCCTTG) | 0.97
34 | GAATAGCCATGGACCGGTTTTCCCGGTAATCCGTATTTGCA (site GAATCGCCTTG) | 0
35 | GAATAGCCATGGACCGGTTTTCCCGGTAATCCGTATTTGCA (site GAATGGCCTTG) | 0.0428
36 | GAATAGCCATGGACCGGTTTTCCCGGTAATCCGTATTTGCA (site GAATTGCCTTG) | 0
37 | GAATGAGCATGGACCGGTTTTCCCGGTAATCCGTATTTGGG (site AAATGAGCTCC) | 0.0126
38 | GAATGAGCATGGACCGGTTTTCCCGGTAATCCGTATTTGGG (site CAATGAGCTCC) | 0.0211
39 | GAATGAGCATGGACCGGTTTTCCCGGTAATCCGTATTTGGG (site GAATGAGCTCC) | 0.261
40 | GAATGAGCATGGACCGGTTTTCCCGGTAATCCGTATTTGGG (site TAATGAGCTCC) | 0.317
41 | GAATGGCCATGGACCGGTTTTCCCGGTAATCCGTATTTGCC (site GAATGGCCTAG) | 0
42 | GAATGGCCATGGACCGGTTTTCCCGGTAATCCGTATTTGCC (site GAATGGCCTCG) | 0.0106
43 | GAATGGCCATGGACCGGTTTTCCCGGTAATCCGTATTTGCC (site GAATGGCCTGG) | 0
44 | GAATGGCCATGGACCGGTTTTCCCGGTAATCCGTATTTGCC (site GAATGGCCTTG) | 0
45 | GAATGGCCATGGACCGGTTTTCCCGGTAATCCGTATTTGCG (site GAATGGCCTAG) | 0
46 | GAATGGCCATGGACCGGTTTTCCCGGTAATCCGTATTTGCG (site GAATGGCCTCG) | 0.0153
47 | GAATGGCCATGGACCGGTTTTCCCGGTAATCCGTATTTGCG (site GAATGGCCTGG) | 0
48 | GAATGGCCATGGACCGGTTTTCCCGGTAATCCGTATTTGCG (site GAATGGCCTTG) | 0
49 | GAATGGCCATGGACCGGTTTTCCCGGTAATCCGTATTTGGA (site GAATGGCCTTA) | 0
50 | GAATGGCCATGGACCGGTTTTCCCGGTAATCCGTATTTGGA (site GAATGGCCTTC) | 0.00798

Row | Sequence | recombinant UMI read abundance (log10)
51 | GAATGGCCATGGACCGGTTTTCCCGGTAATCCGTATTTGGA (site GAATGGCCTTG) | 0
52 | GAATGGCCATGGACCGGTTTTCCCGGTAATCCGTATTTGGA (site GAATGGCCTTT) | 0.0129
53 | GAATGGCCATGGACCGGTTTTCCCGGTAATCCGTATTTGTA (site GAATGGCCTTA) | 0.142
54 | GAATGGCCATGGACCGGTTTTCCCGGTAATCCGTATTTGTA (site GAATGGCCTTC) | 0.0097
55 | GAATGGCCATGGACCGGTTTTCCCGGTAATCCGTATTTGTA (site GAATGGCCTTG) | 0.00609
56 | GAATGGCCATGGACCGGTTTTCCCGGTAATCCGTATTTGTA (site GAATGGCCTTT) | 0.0207
57 | GACAAACCATGGACCGGTTTTCCCGGTAATCCGTATTTGCT (site GACAAACCTAA) | 0.00711
58 | GACAAACCATGGACCGGTTTTCCCGGTAATCCGTATTTGCT (site GACAAACCTAC) | 0
59 | GACAAACCATGGACCGGTTTTCCCGGTAATCCGTATTTGCT (site GACAAACCTAG) | 0
60 | GACAAACCATGGACCGGTTTTCCCGGTAATCCGTATTTGCT (site GACAAACCTAT) | 0
61 | GACAAACCATGGACCGGTTTTCCCGGTAATCCGTATTTGGA (site GACAAACCTAC) | 0.0269
62 | GACAAACCATGGACCGGTTTTCCCGGTAATCCGTATTTGGA (site GACAAACCTCC) | 0
63 | GACAAACCATGGACCGGTTTTCCCGGTAATCCGTATTTGGA (site GACAAACCTGC) | 0
64 | GACAAACCATGGACCGGTTTTCCCGGTAATCCGTATTTGGA (site GACAAACCTTC) | 0
65 | GACAAACCATGGACCGGTTTTCCCGGTAATCCGTATTTGTT (site GACAAACCTAA) | 0
66 | GACAAACCATGGACCGGTTTTCCCGGTAATCCGTATTTGTT (site GACAAACCTAC) | 0
67 | GACAAACCATGGACCGGTTTTCCCGGTAATCCGTATTTGTT (site GACAAACCTAG) | 0
68 | GACAAACCATGGACCGGTTTTCCCGGTAATCCGTATTTGTT (site GACAAACCTAT) | 0
69 | GACACACCATGGACCGGTTTTCCCGGTAATCCGTATTTGGT (site GACAAACCTAC) | 0
70 | GACACACCATGGACCGGTTTTCCCGGTAATCCGTATTTGGT (site GACACACCTAC) | 0.00264
71 | GACACACCATGGACCGGTTTTCCCGGTAATCCGTATTTGGT (site GACAGACCTAC) | 0.00253
72 | GACACACCATGGACCGGTTTTCCCGGTAATCCGTATTTGGT (site GACATACCTAC) | 0.00315
73 | GACCACCCATGGACCGGTTTTCCCGGTAATCCGTATTTGTT (site GACCACCCTAA) | 0.0158
74 | GACCACCCATGGACCGGTTTTCCCGGTAATCCGTATTTGTT (site GCCCACCCTAA) | 0.0164
75 | GACCACCCATGGACCGGTTTTCCCGGTAATCCGTATTTGTT (site GGCCACCCTAA) | 0.00672
